Experimental data: patent US8486651B2, “Method for treating a disorder associated with Eya dysregulation by modulating Eya phosphatase activity” (Children's Hospital Medical Center, priority 2008, dated 2013)
Blank lines part the entries; values can stand above or below the molecule they belong to.

What was measured:
Eya = Eya phosphatase activity pNPP screen, plate controls; format: biochemical; details: plate control
Procedure: Phosphatase Activity Assay. Phosphatase activity of Eya is measured using the p-nitrophenyl phosphate (pNPP) assay. In this assay, reaction mixtures of approximately 60 uL in 20 mM MES (pH 5.5), various concentrations of pNPP and cations are pre-equilibrated at 30° C. for 10 minutes. The assay is initiated by the addition of 0.3 ug of enzyme in 20 mM Tris (pH 8.0) and 150 mM NaCl. The reaction mixture is incubated for 20 minutes, and then quenched with 100 uL of 0.4 M EDTA, pH 10.0. Release of p-nitrophenol (pNP) is monitored by measuring absorbance at a wavelength of 410 (A410) and extrapolating the values into the Michaelis-Menten equation using SIGMAPLOT (SPSS Science, Chicago, Ill.). pNP release can be plotted as a function of time when various enzyme concentrations are used.
The protocol is substantially that described in references 4, 17 and 18. Eya phosphatase activity is measured using the model chromogenic substrate p-nitro-phenylphosphate (pNPP) as described. […] To ensure data quality and assay robustness, the Z value is used. The Z value is based on the difference between the signal of the positive control (ie, no test compound) and that of the negative control (no Eya protein or polypeptide). The Z value incorporates the standard deviation of each signal. A Z value of 1.0 is considered perfect, and Z values above 0.5 are generally considered ideal for HTS. […] In both the primary and secondary screen, every plate also contains three additional controls: 20 mM Na-o-vanadate (which inhibits Eya), 20 mM EDTA (which inhibits 100% of Eya activity) and 50 mM NaF (which inhibits Eya).

[1] = system: T1, histone H2AX C-terminus peptide (KKATQASQEpY)
T1 sequence: KKATQASQEY

[2] = system: T2, Six2 fragment derived from mouse Six protein (SEQ ID NO. 6)
T2 sequence: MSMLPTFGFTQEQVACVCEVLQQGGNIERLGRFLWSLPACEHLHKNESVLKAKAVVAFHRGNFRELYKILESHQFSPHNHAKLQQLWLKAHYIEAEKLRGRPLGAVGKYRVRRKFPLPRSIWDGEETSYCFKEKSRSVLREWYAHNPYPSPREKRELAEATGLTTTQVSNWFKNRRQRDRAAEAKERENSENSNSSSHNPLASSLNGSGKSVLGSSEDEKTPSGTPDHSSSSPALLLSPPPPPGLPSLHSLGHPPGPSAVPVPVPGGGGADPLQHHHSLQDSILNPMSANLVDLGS

human SIX6 = target: T3, human SIX6 (UniProt O95475)
T3 sequence: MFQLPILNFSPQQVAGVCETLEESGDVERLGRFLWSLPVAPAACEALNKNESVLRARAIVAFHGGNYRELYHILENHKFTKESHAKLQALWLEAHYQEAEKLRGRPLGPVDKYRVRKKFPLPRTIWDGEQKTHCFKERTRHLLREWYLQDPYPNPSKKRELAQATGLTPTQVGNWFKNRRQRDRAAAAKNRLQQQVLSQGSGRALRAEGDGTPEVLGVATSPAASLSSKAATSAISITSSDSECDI

Molecule: [Na+].[Na+].[Na+].[O]=[V]([O-])([O-])[O-] [Na-o-vanadate]
- inhibition of Eya (Eya; 20 mM Na-o-vanadate): inhibits Eya

Molecule: [F-].[Na+] [NaF]
- inhibition of Eya (Eya; 50 mM NaF): inhibits Eya

Molecule: Full-length murine Eya3
- catalytic rate of dephosphorylation of the tyrosine-phosphorylated H2AX peptide [1]: The ability of Eya3 to dephosphorylate a tyrosine-phosphorylated peptide derived from H2AX was monitored in the presence or absence of stoichiometric amounts of either SIX2 or SIX6. The catalytic rate at increasing concentrations of H2AX-pY peptide was measured.
- kcat of Eya3 (dephosphorylation of the H2AX-pY peptide, malachite-green type phosphate release), with stoichiometric SIX2 [2]: The interaction with these SIX proteins increases the kcat of Eya3, while the Km values remain relatively similar.
- kcat of Eya3 (dephosphorylation of the H2AX-pY peptide, malachite-green type phosphate release), with stoichiometric SIX6 (human SIX6): The interaction with these SIX proteins increases the kcat of Eya3, while the Km values remain relatively similar.

- inhibition of Eya activity (Eya; 20 mM EDTA): 100%
Molecule: O=C(O)CN(CCN(CC(=O)O)CC(=O)O)CC(=O)O [EDTA]
